{"source": "patent US10780090B2", "about": "“Heteroaryl compounds useful as inhibitors of SUMO activating enzyme” (Millennium Pharmaceuticals, Inc., priority 2014, dated 2020)", "molecular_target": "recombinant human SAE enzyme (Homo sapiens (Human), UniProt Q9UBT2)", "sequence (Q9UBT2 whole entry)": "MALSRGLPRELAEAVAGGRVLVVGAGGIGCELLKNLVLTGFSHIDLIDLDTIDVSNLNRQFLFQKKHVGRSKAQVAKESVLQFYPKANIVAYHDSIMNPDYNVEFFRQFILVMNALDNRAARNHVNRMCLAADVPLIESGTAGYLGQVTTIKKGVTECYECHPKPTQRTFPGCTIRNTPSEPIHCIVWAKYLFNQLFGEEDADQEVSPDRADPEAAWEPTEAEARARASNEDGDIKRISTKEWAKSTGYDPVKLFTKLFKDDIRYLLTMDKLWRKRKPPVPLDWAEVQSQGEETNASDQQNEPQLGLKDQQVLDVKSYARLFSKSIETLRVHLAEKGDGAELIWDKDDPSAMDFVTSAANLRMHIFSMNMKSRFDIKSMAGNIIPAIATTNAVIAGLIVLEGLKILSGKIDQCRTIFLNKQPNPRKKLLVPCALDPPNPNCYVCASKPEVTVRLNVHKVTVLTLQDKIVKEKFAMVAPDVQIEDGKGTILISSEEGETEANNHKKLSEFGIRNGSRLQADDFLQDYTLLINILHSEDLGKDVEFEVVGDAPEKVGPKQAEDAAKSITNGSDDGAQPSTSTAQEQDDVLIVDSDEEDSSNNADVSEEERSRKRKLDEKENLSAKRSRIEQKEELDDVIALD", "sequence (Q9UBE0 whole entry partner)": "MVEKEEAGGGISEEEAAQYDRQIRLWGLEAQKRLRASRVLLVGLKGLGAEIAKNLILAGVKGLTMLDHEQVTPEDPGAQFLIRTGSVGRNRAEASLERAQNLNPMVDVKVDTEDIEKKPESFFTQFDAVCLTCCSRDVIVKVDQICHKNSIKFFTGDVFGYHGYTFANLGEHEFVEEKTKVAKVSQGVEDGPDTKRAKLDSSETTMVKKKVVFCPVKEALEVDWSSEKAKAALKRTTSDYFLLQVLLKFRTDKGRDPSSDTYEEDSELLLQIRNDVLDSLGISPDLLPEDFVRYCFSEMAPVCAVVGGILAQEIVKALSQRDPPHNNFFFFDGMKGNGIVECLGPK", "assay": "SAE HTRF enzyme assay", "format": "biochemical", "conditions": "for inhibition at 0.111 µM: read-out: Percent Inhibition", "method_in_brief": "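0.11 nM SAE incubated with 0.5 μM ATP, 0.01 μM Ubc9-GST and 0.125 μM Sumo-Flag in HEPES pH 7.5, MgCl2, GSH, BSA, ±inhibitor, 105 min at 24° C. EDTA stop; Eu-cryptate anti-Flag/XL-APC anti-GST HTRF read after 2 h. Values given as single-concentration % inhibition or IC50.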", "key": {"[1]": {"conditions": "SAE inhibition at compound concentration 0.111 μM"}, "[2]": {"conditions": "SAE inhibition, class symbols, legend in nM"}}}
{"compound": "Cc1nn(Cc2csc(C(=O)c3cncnc3N[C@@H]3C[C@H](COS(N)(=O)=O)[C@@H](O)C3)c2)c2cnccc12", "note": "[I-160, [(1R,2S,4R)-2-hydroxy-4-{[5-({4-[(3-methyl-1H-pyrazolo[3,4-c]pyridin-1-yl)methyl]-2-thienyl}carbonyl)pyrimidin-4-yl]amino}cyclopentyl]methyl sulfamate]", "values": [{"measurement": "inhibition at 0.111 µM", "setting": "Concentration 0.111 μM", "value": 92, "unit": "%"}, {"measurement": "IC50", "setting": "class symbols A/B/C", "value": "< 10", "unit": "nM"}]}
{"compound": "NS(=O)(=O)OC[C@H]1C[C@@H](Nc2ncncc2C(=O)c2cc([C@@H]3OCC(F)(F)c4ccccc43)cs2)C[C@@H]1O", "note": "(single isomer, unassigned) [I-293b, [(1R,2S,4R)-4-{[5-({4-[(1R)-4,4-difluoro-3,4-dihydro-1H-isochromen-1-yl]-2-thienyl}carbonyl)pyrimidin-4-yl]amino}-2-hydroxycyclopentyl]methyl sulfamate or [(1R,2S,4R)-4-{[5-({4-[(1S)-4,4-difluoro-3,4-dihydro-1H-isochromen-1-yl]-2-thienyl}carbonyl)pyrimidin-4-yl]amino}-2-hydroxycyclopentyl]methyl sulfamate]", "values": [{"measurement": "Percent Inhibition", "setting": "[1]", "value": 98, "unit": "%"}, {"measurement": "IC50", "setting": "[2]", "value": "< 10", "unit": "nM"}]}
{"compound": "NS(=O)(=O)OC[C@H]1C[C@@H](Nc2ncncc2C(=O)c2cc([C@@H]3NCCc4ccc(Br)cc43)c(Cl)s2)[C@H](O)[C@@H]1O", "note": "(mixture of isomers) [I-259, [(1R,2R,3S,4R)-4-{[5-({4-[(1R)-7-bromo-1,2,3,4-tetrahydroisoquinolin-1-yl]-5-chloro-2-thienyl}carbonyl)pyrimidin-4-yl]amino}-2,3-dihydroxycyclopentyl]methyl sulfamate and [(1R,2R,3S,4R)-4-{[5-({4-[(1S)-7-bromo-1,2,3,4-tetrahydroisoquinolin-1-yl]-5-chloro-2-thienyl}carbonyl)pyrimidin-4-yl]amino}-2,3-dihydroxycyclopentyl]methyl sulfamate]", "values": [{"measurement": "Percent Inhibition", "setting": "Concentration 0.111 μM", "value": 99}, {"measurement": "IC50", "setting": "class symbols A/B/C", "value": "< 10", "unit": "nM"}]}
{"compound": "NS(=O)(=O)OC[C@H]1C[C@@H](Nc2ncncc2C(=O)c2cc(CN3CC=CCC3)cs2)C[C@@H]1O", "note": "[I-204, {(1R,2S,4R)-4-[(5-{[4-(3,6-dihydropyridin-1(2H)-ylmethyl)-2-thienyl]carbonyl}pyrimidin-4-yl)amino]-2-hydroxycyclopentyl}methyl sulfamate]", "values": [{"measurement": "inhibition at 0.111 µM", "setting": "Concentration 0.111 μM", "value": 52, "unit": "%"}, {"measurement": "IC50", "setting": "class symbols A/B/C", "value": "10 to 100", "unit": "nM"}]}
{"compound": "NS(=O)(=O)OC[C@H]1C[C@@H](Nc2ncncc2C(=O)c2cc(CCc3ccc(Cl)cc3)cs2)C[C@@H]1O", "note": "[I-178, [(1R,2S,4R)-4-{[5-({4-[2-(4-chlorophenyl)ethyl]-2-thienyl}carbonyl)pyrimidin-4-yl]amino}-2-hydroxycyclopentyl]methyl sulfamate]", "values": [{"measurement": "inhibition at 0.111 µM", "setting": "Concentration 0.111 μM", "value": 87, "unit": "%"}, {"measurement": "IC50", "setting": "class symbols A/B/C", "value": "10 to 100", "unit": "nM"}]}
{"compound": "Cc1oc(C(=O)c2cncnc2N[C@@H]2C[C@H](COS(N)(=O)=O)[C@@H](O)C2)cc1[C@@H]1OCCc2ccc(Cl)cc21", "note": "(mixture of isomers) [I-270, {(1R,2S,4R)-4-[(5-{4-[(1R)-7-chloro-3,4-dihydro-1H-isochromen-1-yl]-5-methyl-2-furoyl}pyrimidin-4-yl)amino]-2-hydroxycyclopentyl}methyl sulfamate and {(1R,2S,4R)-4-[(5-{4-[(1S)-7-chloro-3,4-dihydro-1H-isochromen-1-yl]-5-methyl-2-furoyl}pyrimidin-4-yl)amino]-2-hydroxycyclopentyl}methyl sulfamate]", "values": [{"measurement": "Percent Inhibition", "setting": "Concentration 0.111 μM", "value": 99}, {"measurement": "IC50", "setting": "class symbols A/B/C", "value": "< 10", "unit": "nM"}]}
{"compound": "COCc1sc(C(=O)c2cncnc2N[C@@H]2C[C@H](COS(N)(=O)=O)[C@@H](O)C2)cc1Cc1cccc(Cl)c1", "note": "[I-44, {(1R,2S,4R)-4-[(5-{[4-(3-chlorobenzyl)-5-(methoxymethyl)-2-thienyl]carbonyl}pyrimidin-4-yl)amino]-2-hydroxycyclopentyl}methyl sulfamate]", "values": [{"measurement": "inhibition at 0.111 µM", "setting": "Concentration 0.111 μM", "value": 100, "unit": "%"}, {"measurement": "IC50", "setting": "class symbols A/B/C", "value": "< 10", "unit": "nM"}]}
{"compound": "NS(=O)(=O)OC[C@H]1C[C@@H](Nc2ncncc2C(=O)c2cc(CSc3ccccc3)cs2)C[C@@H]1O", "note": "[I-177, [(1R,2S,4R)-2-hydroxy-4-{[5-({4-[(phenylsulfanyl)methyl]-2-thienyl}carbonyl)pyrimidin-4-yl]amino}cyclopentyl]methyl sulfamate]", "values": [{"measurement": "inhibition at 0.111 µM", "setting": "Concentration 0.111 μM", "value": 85, "unit": "%"}, {"measurement": "IC50", "setting": "class symbols A/B/C", "value": "10 to 100", "unit": "nM"}]}
{"compound": "COc1cccc(Cc2csc(C(=O)c3cncnc3N[C@@H]3C[C@H](COS(N)(=O)=O)[C@@H](O)C3)c2)c1", "note": "[I-123, {(1R,2S,4R)-2-hydroxy-4-[(5-{[4-(3-methoxybenzyl)-2-thienyl]carbonyl}pyrimidin-4-yl)amino]cyclopentyl}methyl sulfamate]", "values": [{"measurement": "inhibition at 0.111 µM", "setting": "Concentration 0.111 μM", "value": 96, "unit": "%"}, {"measurement": "IC50", "setting": "class symbols A/B/C", "value": "< 10", "unit": "nM"}]}
{"compound": "Cc1sc(C(=O)c2cncnc2N[C@@H]2C[C@H](COS(N)(=O)=O)[C@@H](O)C2)cc1Sc1ccccc1", "note": "[I-137, {(1R,2S,4R)-2-hydroxy-4-[(5-{[5-methyl-4-(phenylsulfanyl)-2-thienyl]carbonyl}pyrimidin-4-yl)amino]cyclopentyl}methyl sulfamate]", "values": [{"measurement": "inhibition at 0.111 µM", "setting": "Concentration 0.111 μM", "value": 95, "unit": "%"}]}
{"compound": "NS(=O)(=O)OC[C@H]1C[C@@H](Nc2ncncc2C(=O)c2cc(C3NCCc4ccc(Cl)cc43)c(Cl)s2)C[C@@H]1O", "note": "(single isomer, unassigned) [I-255a, [(1R,2S,4R)-4-{[5-({5-chloro-4-[(1R)-7-chloro-1,2,3,4-tetrahydroisoquinolin-1-yl]-2-thienyl}carbonyl)pyrimidin-4-yl]amino}-2-hydroxycyclopentyl]methyl sulfamate or [(1R,2S,4R)-4-{[5-({5-chloro-4-[(1S)-7-chloro-1,2,3,4-tetrahydroisoquinolin-1-yl]-2-thienyl}carbonyl)pyrimidin-4-yl]amino}-2-hydroxycyclopentyl]methyl sulfamate]", "values": [{"measurement": "Percent Inhibition", "setting": "Concentration 0.111 μM", "value": 93}, {"measurement": "IC50", "setting": "class symbols A/B/C", "value": "10 to 100", "unit": "nM"}]}
{"compound": "NS(=O)(=O)OC[C@H]1C[C@@H](Nc2ncncc2C(=O)c2cc(CN3CC=CC3)cs2)C[C@@H]1O", "note": "[I-219, {(1R,2S,4R)-4-[(5-{[4-(2,5-dihydro-1H-pyrrol-1-ylmethyl)-2-thienyl]carbonyl}pyrimidin-4-yl)amino]-2-hydroxycyclopentyl}methyl sulfamate]", "values": [{"measurement": "inhibition at 0.111 µM", "setting": "Concentration 0.111 μM", "value": 32, "unit": "%"}, {"measurement": "IC50", "setting": "class symbols A/B/C", "value": "100 to 1000", "unit": "nM"}]}
{"compound": "CC(O)(c1cccc(Cl)c1)c1cc(C(=O)c2cncnc2N[C@@H]2C[C@H](COS(N)(=O)=O)[C@@H](O)C2)sc1Cl", "note": "(single isomer, unassigned) [I-102b, [(1R,2S,4R)-4-{[5-({5-chloro-4-[(1R)-1-(3-chlorophenyl)-1-hydroxyethyl]-2-thienyl}carbonyl)pyrimidin-4-yl]amino}-2-hydroxycyclopentyl]methyl sulfamate or [(1R,2S,4R)-4-{[5-({5-chloro-4-[(1S)-1-(3-chlorophenyl)-1-hydroxyethyl]-2-thienyl}carbonyl)pyrimidin-4-yl]amino}-2-hydroxycyclopentyl]methyl sulfamate]", "values": [{"measurement": "Percent Inhibition", "setting": "Concentration 0.111 μM", "value": 97}, {"measurement": "IC50", "setting": "class symbols A/B/C", "value": "< 10", "unit": "nM"}]}
{"compound": "NS(=O)(=O)OC[C@H]1C[C@@H](Nc2ncncc2C(=O)c2cc(Cc3cccc(I)c3)cs2)C[C@@H]1O", "note": "[I-62, {(1R,2S,4R)-2-hydroxy-4-[(5-{[4-(3-iodobenzyl)-2-thienyl]carbonyl}pyrimidin-4-yl)amino]cyclopentyl}methyl sulfamate]", "values": [{"measurement": "inhibition at 0.111 µM", "setting": "Concentration 0.111 μM", "value": 98, "unit": "%"}]}
{"compound": "CC(C)[C@@H](O)c1cc(C(=O)c2cncnc2N[C@@H]2C[C@H](COS(N)(=O)=O)[C@@H](O)C2)sc1Cl", "note": "(mixture of isomers) [I-195, [(1R,2S,4R)-4-{[5-({5-chloro-4-[(1R)-1-hydroxy-2-methylpropyl]-2-thienyl}carbonyl)pyrimidin-4-yl]amino}-2-hydroxycyclopentyl]methyl sulfamate and [(1R,2S,4R)-4-{[5-({5-chloro-4-[(1S)-1-hydroxy-2-methylpropyl]-2-thienyl}carbonyl)pyrimidin-4-yl]amino}-2-hydroxycyclopentyl]methyl sulfamate]", "values": [{"measurement": "Percent Inhibition", "setting": "Concentration 0.111 μM", "value": 68}, {"measurement": "IC50", "setting": "class symbols A/B/C", "value": "10 to 100", "unit": "nM"}]}
{"compound": "NS(=O)(=O)OC[C@H]1C[C@@H](Nc2ncncc2C(=O)c2cc([C@@H]3NCCc4ccc(Cl)nc43)c(Cl)s2)C[C@@H]1O", "note": "(single isomer, unassigned) [I-253a, [(1R,2S,4R)-4-{[5-({5-chloro-4-[(8S)-2-chloro-5,6,7,8-tetrahydro-1,7-naphthyridin-8-yl-2-thienyl}carbonyl)pyrimidin-4-yl]amino}-2-hydroxycyclopentyl]methyl sulfamate or ((1R,2S,4R)-4-{([5-({5-chloro-4-[(8R)-2-chloro-5,6,7,8-tetrahydro-1,7-naphthyridin-8-yl]-2-thienyl}carbonyl)pyrimidin-4-yl]amino}-2-hydroxycyclopentyl]methyl sulfamate]", "values": [{"measurement": "Percent Inhibition", "setting": "Concentration 0.111 μM", "value": 99}, {"measurement": "IC50", "setting": "class symbols A/B/C", "value": "< 10", "unit": "nM"}]}
{"compound": "Cc1sc(C(=O)c2cncnc2N[C@@H]2C[C@H](COS(N)(=O)=O)[C@@H](O)C2)cc1[C@@H]1OCCn2c(C)cnc21", "note": "(mixture of isomers) [I-296, [(1R,2S,4R)-2-hydroxy-4-{[5-({5-methyl-4-[(8S)-3-methyl-5,6-dihydro-8H-imidazo[2,1-c][1,4]oxazin-8-yl]-2-thienyl}carbonyl)pyrimidin-4-yl]amino}cyclopentyl]methyl sulfamate and [(1R,2S,4R)-2-hydroxy-4-{[5-({5-methyl-4-[(8R)-3-methyl-5,6-dihydro-8H-imidazo[2,1-c][1,4]oxazin-8-yl]-2-thienyl}carbonyl)pyrimidin-4-yl]amino}cyclopentyl]methyl sulfamate]", "values": [{"measurement": "Percent Inhibition", "setting": "[1]", "value": 98, "unit": "%"}, {"measurement": "IC50", "setting": "[2]", "value": "< 10", "unit": "nM"}]}
{"compound": "NS(=O)(=O)OC[C@H]1C[C@@H](Nc2ncncc2C(=O)c2cc(Cc3cccc(Cl)c3)cs2)C[C@@H]1O", "note": "[I-43, {(1R,2S,4R)-4-[(5-{[4-(3-chlorobenzyl)-2-thienyl]carbonyl}pyrimidin-4-yl)amino]-2-hydroxycyclopentyl}methyl sulfamate]", "values": [{"measurement": "inhibition at 0.111 µM", "setting": "Concentration 0.111 μM", "value": 99, "unit": "%"}]}
